A word on the viability: it is a per cent measure of how many cells are alive, often set against a control.

Residues, ends and D or L forms follow the SMILES beside them. A value given as a limit tells only on which side of the number the result lay.

From patent US12049519B2, “Peptide for the delivery of anionic materials” (The Queen's University of Belfast, priority 2019, dated 2024) come the findings set out here.

Series [1] relates to pEGFP-N1. The experiment in a line: DNA complexation efficiency assay, Quant-iT PicoGreen. The class given is binding. On the procedure: FIG. 2: DNA complexation efficiency assay using Quant-iT™ PicoGreen® reagent indicating the efficiency of A) Peptide 7, B) Peptide 8, C) Peptide 9, D) Peptide 10, E) Peptide 11 and F) Peptide 12 to complex 0.5 μg pEGFP-N1 (Accession Number: U55762.1) (a pDNA) at a range of N:P ratios. Peptide/pEGFP-N1 complexes were prepared at a range of N:P ratios from 1 to 20. 50 μl samples of each N:P ratio was pipetted into a 96-well plate with Quant-iT™ PicoGreen® reagent. Sample fluorescence was then analysed by excitation at 480 nm and the fluorescence emission intensity measured at 520 nm using a Synergy 2 Multi-Mode Microplate Reader. Fluorescence was then calculated as a percentage of the control and converted to the percentage DNA complexed.
Peptide complexes and composite complexes were prepared at a range of N:P ratios from 1 to 20 to complex 0.5 μg pEGFP-N1. Quant-iT™ PicoGreen® Reagent (Life Technologies, UK) was diluted 1:200 in TAE buffer and 50 μl was added to each 50 μl sample. Sample fluorescence was analysed by excitation at 480 nm and the fluorescence emission intensity measured at 520 nm using a Synergy 2 Multi-Mode Plate Reader. Fluorescence intensity of a naked pDNA control (an N:P ratio of 0) was taken as 100% fluorescence and 0% complexed, and any fluorescence detected from samples was taken to be un-complexed. […]

For series [2], the system named is MCF-7 breast cancer cells. The experiment in a line: Transfection with peptide/pEGFP-N1 nanoparticles, flow cytometry. The class given is cell-based. The note with it: N:P ratios of 6 to 10. On the procedure:
(§1) FIG. 5: Transfection efficiency of nanoparticles comprising pEGFP-N1 and A) Peptide 7, B) Peptide 8, C) Peptide 9, D) Peptide 10, E) Peptide 11 and F) Peptide 12 assessed in MCF-7 and
(§2) MDA-MB-231 breast cancer cells. Cells were transfected for 4 h with peptide/pEGFP-N1 nanoparticles at a range of N:P ratios. Following transfection, medium was replaced with DMEM supplemented with 10% FCS and incubated for 48 h before quantification of transfection efficiency by flow cytometry at 4% gating.
(§3) In order to assess the ability of peptide and composite nanoparticles to transfect cells, transfections were carried out in 96-well tissue culture plates.
(§4) MCF-7 and MDA-MB-231 breast cancer cells were seeded at a density of 2.25×10^4 and 2.5×10^4 cells per well respectively, and allowed to adhere overnight at 37° C. with 5% CO2 (FIG. 5).
(§5) Medium was replaced with OptiMEM (Invitrogen, UK) 2 h prior to transfection and the cells returned to the incubator at 37° C. with 5% CO2. […]
(§6) Transfected cells were washed with phosphate buffered saline (PBS) and 2× trypsin used to detach cells at 37° C. in 5% CO2 atmosphere. […] A FACScalibur system (BD Bioscience, UK) or Accuri C6 Plus (BD Bioscience, UK) were used for the detection of green fluorescent protein (GFP) expressing cells at 4% gating (to reduce interference of auto-fluorescence) and results are reported as mean±SEM, n=3.

For series [3], the system named is MDA-MB-231 breast cancer cells. The series is described as above. Format: cell-based. The note with it: N:P ratios of 6 to 10. On the procedure: as §1, §2, §3, §4, §5, §6
Series [4] concerns MCF-7 breast cancer cells. Put plainly: Endosomal escape study: transfection with and without chloroquine. Format: cell-based. The note with it: N:P 10, with and without 10 μM chloroquine, cell line not given. On the procedure: (§7) FIG. 6: Transfection efficiency of nanoparticles comprising pEGFP-N1 and Peptides 7 to 12 assessed in A) MCF-7 and B) MDA-MB-231 breast cancer cells with and without chloroquine, a reagent known to facilitate endosomal escape. Cells were transfected for 4 h with peptide/pEGFP-N1 nanoparticles at N:P 10. 10 μM chloroquine was added to cells in appropriate wells along with the nanoparticles. Following transfection, medium was replaced with DMEM supplemented with 10% FCS and incubated for 48 h before quantification of transfection efficiency by flow cytometry at 4% gating. […] Statistical analysis was carried out using an unpaired t test (*=P<0.05, ** =P<0.01, ***=P<0.001)
(§8) In some instances, cells were treated with chloroquine (a reagent known to facilitate endosomal escape) (FIG. 6). For endosomal escape studies, 1 mM chloroquine (Sigma-Aldrich, UK) was added to the cells immediately before transfection, giving a final concentration of 10 μM chloroquine in the nanoparticle transfection mix.

Series [5] deals with MDA-MB-231 breast cancer cells. The series is described as above. The class given is cell-based. The note with it: N:P 10, with and without 10 μM chloroquine, cell line not given. On the procedure: as §7, §8
Series [6] can be described thus: Nanoparticle hydrodynamic size, Malvern Zetasizer (DLS). Format: physicochemical. The note with it: low N:P ratios. On the procedure:
FIG. 3: Mean hydrodynamic size and zeta potential of nanoparticles prepared with pEGFP-N1 and A) Peptide 7, B) Peptide 8, C) Peptide 9, D) Peptide 10, E) Peptide 11 or F) Peptide 12 at a range of N:P ratios. For example, at an N:P ratio of 10 with Peptide 7, nanoparticles comprise 0.5 μg of pEGFP-N1 and 5.7 μg Peptide 7. Nanoparticles were made up to 50 μl with molecular grade water and incubated for 30 min at room temperature before hydrodynamic size and zeta potential were measured using a Malvern Zetasizer Nano ZS instrument.
Peptide complexes (an N:P ratio of 0) and composite complexes were prepared at a range of N:P ratios from 1 to 20 to complex 0.5 μg pEGFP-N1. For example, at an N:P ratio of 10 with Peptide 7, nanoparticles comprise 0.5 μg of pEGFP-N1 and 5.7 μg Peptide 7. Nanoparticles were made up to 50 μl with molecular grade water and incubated for 30 min at room temperature before a Malvern Zetasizer Nano ZS instrument with DTS software (Malvern Instruments, UK) was used to measure the mean hydrodynamic particle size of nanoparticles. A 40 μl disposable microcuvette was used to measure the mean size by number of nanoparticles formed by Dynamic Light Scattering (DLS) at 20° C. Results were reported as mean±SEM, and all measurements were performed in triplicate.

Series [7] can be described thus: Cell viability, MTS assay (FIGS. 11 and 12B). The class given is cell-based. The note with it: N:P ratio of 6 to 15; 24 h post transfection; relative to untreated cells. On the procedure: (§9) FIG. 11: Cell viability of A) MCF-7 and MDA-MB-231 breast cancer cells, B) DU145 and PC-3 prostate cancer cells, and C) NCTC-929 fibroblast, HMEC-1 endothelial, and HaCaT keratinocyte cells following transfection with Peptide 10. Cells were transfected with Peptide 10 at a range of N:P ratios for 4 h before replacement with complete medium. After 24 h, cells were treated with MTS reagent for 2 h in dark conditions. A Bio-Tek Powerwave XS plate reader was then used to read absorbance at 490 nm with Gen5 software and any background absorbance was subtracted from readings. Untreated cells were considered to be 100% viable and viability under all conditions was calculated relative to this.
FIG. 12: Transfection efficiency and cell viability of nanoparticles comprising pEGFP-N1 and Peptide 10 assessed in ARPE human retinal cells. (A) Cells were transfected for 4 h with Peptide 10/pEGFP-N1 nanoparticles at a range of N:P ratios. Following transfection, medium was replaced with culture medium supplemented with 10% serum and incubated for 48 h before imaging using i) light and ii) fluorescence microscopy. Scale bar=400 μm. iii) Quantification of transfection efficiency was subsequently analysed by flow cytometry at 4% gating. […] A Bio-Tek Powerwave XS plate reader was then used to read absorbance at 490 nm with Gen5 software and any background absorbance was subtracted from readings. […]

Series [8] has as its system HMEC-1 endothelial cells. The experiment in a line: Cell viability, MTS assay. Format: cell-based. The note with it: irrespective of the N:P ratio. On the procedure: as §9
(§10) Cell viability was evaluated by MTS assay with CellTiter 96 AQueous One Solution Cell Proliferation Assay (Promega, UK). MDA-MB-231 and PC-3 cells were seeded at a density of 1.5×10^4 cells per well and MCF-7, and DU145cells seeded at 1.2×10^4 cells per well, ARPE, NCTC-929, HMEC-1, and HaCaT cells seeded at 1.0×10^4, and allowed to adhere in a 96 well plate. Cells were transfected CellTiter reagent was added to each well 24 h post transfection to give a final volume of 10% and returned to the incubator for 2 h. Absorbance was read at 490 nm using a Bio-Tek Powerwave XS plate reader with Gen5 software and any background absorbance was subtracted from readings. Cell viability was expressed as a percentage of the untreated control where the untreated control is considered to be 100% viable.

Series [9] deals with HaCaT keratinocyte cells. The experiment in a line: Cell viability, MTS assay. Format: cell-based. The note with it: N:P ratios of 15 and 20. On the procedure:
as §9, §10

For series [10], the system named is NCTC-929 fibroblast cells. The experiment in a line: Cell viability, MTS assay. The note with it: N:P ratios of 15 and 20. The class given is cell-based. On the procedure:
as §9, §10
(Formazan colour is commonly taken as a measure of viable cells.)

For series [11], the system named is breast and prostate cancer cell lines. The experiment in a line: Cell viability, MTS assay. The note with it: even at a high N:P ratio of 20. Format: cell-based. On the procedure:
as §9, §10

As for “CEHHRRRWRRRHHEC [Peptide 12, comparative linear peptide, outside the scope of the invention]”, the maximum complexation efficiency in [1] was 70%. The “% transfection” value in [2] and in series [3] was more than 10% throughout. For the same compound, the “transfection regardless of chloroquine” value in series [4] and in series [5] was “Very low” in each case.
As to “CRRRRWRRRRC [Peptide 11, comparative linear peptide, outside the scope of the invention]”, the “particle size as a function of N:P ratio” value in series [6] is on record as “large particles form at lower N:P ratios”. Besides, the “transfection regardless of chloroquine” value in [4] and in series [5] was “Very low” each time.
`N=C(N)NCCC[C@H](NC(=O)[C@H](CCCNC(=N)N)NC(=O)[C@H](CCCNC(=N)N)NC(=O)[C@H](Cc1c[nH]c2ccccc12)NC(=O)[C@H](CCCNC(=N)N)NC(=O)[C@H](CCCNC(=N)N)NC(=O)[C@H](CCCNC(=N)N)NC(=O)[C@H](Cc1c[nH]cn1)NC(=O)[C@H](Cc1c[nH]cn1)NC(=O)[C@H](Cc1c[nH]cn1)NC(=O)[C@@H](N)CS)C(=O)N[C@@H](Cc1c[nH]cn1)C(=O)N[C@@H](Cc1c[nH]cn1)C(=O)N[C@@H](Cc1c[nH]cn1)C(=O)N[C@@H](CS)C(=O)O` [Peptide 10, CHHHRRRWRRRHHHC] (H-CHHHRRRWRRRHHHC-OH): the viability at 24 h in series [7] was more than 60%. Besides, the “cytotoxic effects (cell viability studies)” value in series [8] is given as “no cytotoxic effects”. Besides, the “toxicity (cell viability studies)” value is recorded as “weak toxicity” in series [9]; “weak toxicity” in series [10]; “weak toxicity, if any” in series [11].
